Data reported in the supplement of paper PMC10307832.

What was measured:
Test in all cases: relative viability (nuclei count vs DMSO), 5 days (fraction); higher = more cells survive
A-427 = test system: A-427
Method in brief: (§1)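 Dosing by pin tool came one day after lung cancer cell lines were seeded in 1536-well plates, using either one drug or a fixed anchor-drug dose plus five library-drug doses (not always all listed) in √10 steps. After 5 days, nuclei were counted on 4× images. Relative viability is treated-well nuclei count divided by vehicle-well nuclei count, and values are medians of duplicate plates.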

HCC-15 = test system: HCC-15
Method in brief: as §1

HCC-78 = test system: HCC-78
Method in brief: as §1

HOP-62 = test system: HOP-62
Method in brief: as §1

LC-2-ad = test system: LC-2-ad
Method in brief: as §1

LOU-NH91 = test system: LOU-NH91
Method in brief: as §1

LXF-289 = test system: LXF-289
Method in brief: as §1

NCI-H1734 = test system: NCI-H1734
Method in brief: as §1

NCI-H1755 = test system: NCI-H1755
Method in brief: as §1

NCI-H1792 = test system: NCI-H1792
Method in brief: as §1

NCI-H1915 = test system: NCI-H1915
Method in brief: as §1

NCI-H1975 = test system: NCI-H1975
Method in brief: as §1

NCI-H2126 = test system: NCI-H2126
Method in brief: as §1

NCI-H2228 = test system: NCI-H2228
Method in brief: as §1

NCI-H2342 = test system: NCI-H2342
Method in brief: as §1

NCI-H2347 = test system: NCI-H2347
Method in brief: as §1

NCI-H358 = test system: NCI-H358
Method in brief: as §1

NCI-H460 = test system: NCI-H460
Method in brief: as §1

NCI-H647 = test system: NCI-H647
Method in brief: as §1

PC-3 [JPC-3] = test system: PC-3 [JPC-3]
Method in brief: as §1

RERF-LC-KJ = test system: RERF-LC-KJ
Method in brief: as §1

SK-LU-1 = test system: SK-LU-1
Method in brief: as §1

SW 1573 = test system: SW 1573
Method in brief: as §1

CC1(C)CCC(c2ccc(Cl)cc2)=C(CN2CCN(c3ccc(C(=O)NS(=O)(=O)c4ccc(N[C@H](CCN5CCOCC5)CSc5ccccc5)c(S(=O)(=O)C(F)(F)F)c4)cc3)CC2)C1 [Navitoclax] + Nc1nc2[nH]cc(CCc3ccc(C(=O)N[C@@H](CCC(=O)O)C(=O)O)cc3)c2c(=O)[nH]1 [Pemetrexed] (partner 0.2 µM)
relative viability (A-427; first compound 0.005 µM): 1.01
relative viability (A-427; first compound 0.01581 µM): 0.896
relative viability (A-427; first compound 0.05 µM): 0.968
relative viability (A-427; first compound 0.1581 µM): 1.14
relative viability (A-427; first compound 0.5 µM): 1.04
relative viability (HCC-15; first compound 0.005 µM): 0.227
relative viability (HCC-15; first compound 0.01581 µM): 0.26
relative viability (HCC-15; first compound 0.05 µM): 0.218
relative viability (HCC-15; first compound 0.1581 µM): 0.228
relative viability (HCC-15; first compound 0.5 µM): 0.229
relative viability (HCC-78; first compound 0.005 µM): 0.867
relative viability (HCC-78; first compound 0.01581 µM): 0.878
relative viability (HCC-78; first compound 0.05 µM): 0.921
relative viability (HCC-78; first compound 0.1581 µM): 0.875
relative viability (HCC-78; first compound 0.5 µM): 0.777
relative viability (HOP-62; first compound 0.005 µM): 0.326
relative viability (HOP-62; first compound 0.01581 µM): 0.299
relative viability (HOP-62; first compound 0.05 µM): 0.323
relative viability (HOP-62; first compound 0.1581 µM): 0.27
relative viability (HOP-62; first compound 0.5 µM): 0.27
relative viability (LC-2-ad; first compound 0.005 µM): 0.268
relative viability (LC-2-ad; first compound 0.01581 µM): 0.263
relative viability (LC-2-ad; first compound 0.05 µM): 0.284
relative viability (LC-2-ad; first compound 0.1581 µM): 0.295
relative viability (LC-2-ad; first compound 0.5 µM): 0.275
relative viability (LOU-NH91; first compound 0.005 µM): 0.308
relative viability (LOU-NH91; first compound 0.01581 µM): 0.304
relative viability (LOU-NH91; first compound 0.05 µM): 0.26
relative viability (LOU-NH91; first compound 0.1581 µM): 0.285
relative viability (LOU-NH91; first compound 0.5 µM): 0.219
relative viability (LXF-289; first compound 0.005 µM): 0.85
relative viability (LXF-289; first compound 0.01581 µM): 0.914
relative viability (LXF-289; first compound 0.05 µM): 0.865
relative viability (LXF-289; first compound 0.1581 µM): 0.926
relative viability (LXF-289; first compound 0.5 µM): 0.852
relative viability (NCI-H1734; first compound 0.005 µM): 0.394
relative viability (NCI-H1734; first compound 0.01581 µM): 0.421
relative viability (NCI-H1734; first compound 0.1581 µM): 0.367
relative viability (NCI-H1734; first compound 0.5 µM): 0.381
relative viability (NCI-H1755; first compound 0.005 µM): 0.371
relative viability (NCI-H1755; first compound 0.01581 µM): 0.419
relative viability (NCI-H1755; first compound 0.05 µM): 0.426
relative viability (NCI-H1755; first compound 0.1581 µM): 0.351
relative viability (NCI-H1755; first compound 0.5 µM): 0.433
relative viability (NCI-H1792; first compound 0.005 µM): 0.917
relative viability (NCI-H1792; first compound 0.01581 µM): 0.82
relative viability (NCI-H1792; first compound 0.1581 µM): 0.716
relative viability (NCI-H1792; first compound 0.5 µM): 0.738
relative viability (NCI-H1915; first compound 0.005 µM): 0.495
relative viability (NCI-H1915; first compound 0.01581 µM): 0.504
relative viability (NCI-H1915; first compound 0.05 µM): 0.571
relative viability (NCI-H1915; first compound 0.1581 µM): 0.439
relative viability (NCI-H1915; first compound 0.5 µM): 0.401
relative viability (NCI-H1975; first compound 0.005 µM): 0.292
relative viability (NCI-H1975; first compound 0.01581 µM): 0.312
relative viability (NCI-H1975; first compound 0.05 µM): 0.343
relative viability (NCI-H1975; first compound 0.1581 µM): 0.301
relative viability (NCI-H1975; first compound 0.5 µM): 0.299
relative viability (NCI-H2126; first compound 0.005 µM): 0.667
relative viability (NCI-H2126; first compound 0.01581 µM): 0.696
relative viability (NCI-H2126; first compound 0.05 µM): 0.671
relative viability (NCI-H2126; first compound 0.1581 µM): 0.602
relative viability (NCI-H2126; first compound 0.5 µM): 0.624
relative viability (NCI-H2228; first compound 0.005 µM): 0.314
relative viability (NCI-H2228; first compound 0.01581 µM): 0.306
relative viability (NCI-H2228; first compound 0.1581 µM): 0.336
relative viability (NCI-H2228; first compound 0.5 µM): 0.31
relative viability (NCI-H2342; first compound 0.005 µM): 0.818
relative viability (NCI-H2342; first compound 0.01581 µM): 0.81
relative viability (NCI-H2342; first compound 0.05 µM): 0.805
relative viability (NCI-H2342; first compound 0.1581 µM): 0.719
relative viability (NCI-H2342; first compound 0.5 µM): 0.763
relative viability (NCI-H2347; first compound 0.005 µM): 0.443
relative viability (NCI-H2347; first compound 0.01581 µM): 0.439
relative viability (NCI-H2347; first compound 0.05 µM): 0.411
relative viability (NCI-H2347; first compound 0.1581 µM): 0.427
relative viability (NCI-H2347; first compound 0.5 µM): 0.437
relative viability (NCI-H358; first compound 0.005 µM): 0.17
relative viability (NCI-H358; first compound 0.01581 µM): 0.173
relative viability (NCI-H358; first compound 0.05 µM): 0.167
relative viability (NCI-H358; first compound 0.1581 µM): 0.165
relative viability (NCI-H358; first compound 0.5 µM): 0.187
relative viability (NCI-H460; first compound 0.005 µM): 0.0632
relative viability (NCI-H460; first compound 0.01581 µM): 0.067
relative viability (NCI-H460; first compound 0.05 µM): 0.0532
relative viability (NCI-H460; first compound 0.1581 µM): 0.059
relative viability (NCI-H460; first compound 0.5 µM): 0.0583
relative viability (NCI-H647; first compound 0.005 µM): 0.166
relative viability (NCI-H647; first compound 0.01581 µM): 0.175
relative viability (NCI-H647; first compound 0.05 µM): 0.163
relative viability (NCI-H647; first compound 0.1581 µM): 0.14
relative viability (NCI-H647; first compound 0.5 µM): 0.128
relative viability (PC-3 [JPC-3]; first compound 0.005 µM): 1.12
relative viability (PC-3 [JPC-3]; first compound 0.01581 µM): 1.26
relative viability (PC-3 [JPC-3]; first compound 0.05 µM): 0.974
relative viability (PC-3 [JPC-3]; first compound 0.1581 µM): 1.02
relative viability (PC-3 [JPC-3]; first compound 0.5 µM): 0.754
relative viability (RERF-LC-KJ; first compound 0.005 µM): 0.476
relative viability (RERF-LC-KJ; first compound 0.01581 µM): 0.38
relative viability (RERF-LC-KJ; first compound 0.05 µM): 0.45
relative viability (RERF-LC-KJ; first compound 0.1581 µM): 0.484
relative viability (RERF-LC-KJ; first compound 0.5 µM): 0.496
relative viability (SK-LU-1; first compound 0.005 µM): 0.945
relative viability (SK-LU-1; first compound 0.01581 µM): 1.01
relative viability (SK-LU-1; first compound 0.05 µM): 0.967
relative viability (SK-LU-1; first compound 0.1581 µM): 0.947
relative viability (SK-LU-1; first compound 0.5 µM): 0.819
relative viability (SW 1573; first compound 0.005 µM): 0.925
relative viability (SW 1573; first compound 0.01581 µM): 0.773
relative viability (SW 1573; first compound 0.05 µM): 0.787
relative viability (SW 1573; first compound 0.1581 µM): 0.751
relative viability (SW 1573; first compound 0.5 µM): 0.801
